Reference: paper PMC12750381 (ACS Omega, 2025)
Where “and” joins values, the source holds several entries; their conditions need not be identical. Equal values may be shown once.

Target: HIV-1 wild-type protease (Human immunodeficiency virus type 1 group M subtype B, UniProt P04585)
Experiment: Fluorometric HIV-1 protease assay (SensoLyte 520 HIV Protease Assay Kit)
Format: biochemical
Settings: for enzyme inhibition (relative activity): at 1 μM, 100 nM and 10 nM
Procedure: The inhibitory effects of the described compounds against HIV-1 wild-type protease were assessed utilizing the fluorometric HIV-1 protease assay kit (SensoLyte 520 HIV Protease Assay Kit AS-71147, AnaSpec Inc., USA), following the manufacturer’s recommended protocol. […] Additionally, 0.01% (v/v) DMSO was employed as the negative control. […] The tested compounds 9a–g were dissolved in 100% DMSO and further diluted with the assay buffer provided in the kit to varying concentrations. The fluorescence was measured in kinetic mode at 490 nm (excitation) and 520 nm (emission) for 90 min at 37 °C using the Varioskan LUX multimode microplate reader (Thermo Fisher Scientific Inc. USA). The raw data obtained were subsequently normalized relative to the controls, with 0.01% DMSO set as 0% inhibitory activity. The IC50 values were calculated by fitting the data to a four-parameter log(inhibitor) vs response equation using GraphPad Prism version 9.5.0 (GraphPad Software, San Diego, California, USA).

Structure (SMILES) | enzyme inhibition (relative activity) (result in words) | IC50 (IC50, wild-type HIV-1 protease, four-parameter log(inhibitor) vs response fit) | inhibitory effect (at 1 μM and 100 nM, result in words)
CC(C)C[C@H](NC(=O)C(Cc1ccccc1)CP(=O)(O)CC(Cc1ccccc1)C(=O)N[C@@H](CC(C)C)C(N)=O)C(N)=O (stereo partly drawn) [Compound 9d, Bis(3-(((S)-1-amino-4-methyl-1-oxopentan-2-yl)amino)-2-benzyl-3-oxopropyl)phosphinic Acid] | moderate level of enzyme inhibition | – | –
CC(C)[C@H](NC(=O)C(Cc1ccccc1)CP(=O)(O)CC(Cc1ccccc1)C(=O)N[C@H](C(N)=O)C(C)C)C(N)=O (stereo partly drawn) [Compound 9c, Bis(3-(((S)-1-amino-3-methyl-1-oxobutan-2-yl)amino)-2-benzyl-3-oxopropyl)phosphinic Acid] | – | 33 nM and 33.1 nM | pronounced inhibitory effect comparable to that of Darunavir
NC(=O)CNC(=O)C(Cc1ccccc1)CP(=O)(O)CC(Cc1ccccc1)C(=O)NCC(N)=O (stereo not shown) [Compound 9a, Bis(3-((2-amino-2-oxoethyl)amino)-2-benzyl-3-oxopropyl)phosphinic Acid] | did not exhibit any significant inhibitory effect | – | –
NC(=O)[C@@H]1CCCN1C(=O)C(Cc1ccccc1)CP(=O)(O)CC(Cc1ccccc1)C(=O)N1CCC[C@H]1C(N)=O (stereo partly drawn) [Compound 9f, Bis(2-benzyl-3-((S)-2-carbamoylpyrrolidin-1-yl)-3-oxopropyl)phosphinic Acid] | did not exhibit any significant inhibitory effect | – | –
NC(=O)[C@H](Cc1ccccc1)NC(=O)C(Cc1ccccc1)CP(=O)(O)CC(Cc1ccccc1)C(=O)N[C@@H](Cc1ccccc1)C(N)=O (stereo partly drawn) [Compound 9e, Bis(3-(((S)-1-amino-1-oxo-3-phenylpropan-2-yl)amino)-2-benzyl-3-oxopropyl)phosphinic Acid] | only weak inhibition | – | –
C[C@H](NC(=O)C(Cc1ccccc1)CP(=O)(O)CC(Cc1ccccc1)C(=O)N[C@@H](C)C(N)=O)C(N)=O (stereo partly drawn) [Compound 9b, Bis(3-(((S)-1-amino-1-oxopropan-2-yl)amino)-2-benzyl-3-oxopropyl)phosphinic Acid] | only weak inhibition | – | –
